Source: patent EP1000039B1 (Wyeth Holdings Corporation, priority 1997, dated 1999)
Converted amounts (≈) assume the structure as drawn. Where two headings read alike, the source gives them in different places.

Legend:
A2780DDP = experiment: Inhibition of Cancer Cell Growth (Sulforhodamine B); type: cell-based, Human; conditions: 48 hours exposure; for IC50: Homo sapiens, read-out: Inhibition of Cancer Cell Growth as Measured by Cell Number (IC50) A2780DDP
Protocol: (§1) After 48 hours exposure to test compounds, cells were fixed with trichloroacetic acid, and stained with Sulforhodamine B. After washing with trichloroacetic acid, bound dye was solubilized in 10 mM Tris base and optical density was determined using plate reader. Under conditions of the assay the optical density is proportional to the number of cells in the well. […] The test procedure is described in details by Philip Skehan et. al. J.Natl. Canc. […]

A431 = experiment: as above; type: cell-based, Human; conditions: for IC50: Homo sapiens, A-431, 48 hours exposure, read-out: Inhibition of Cancer Cell Growth as Measured by Cell Number (IC50) A431
Protocol: as §1

A2780S = experiment: as above; type: cell-based, Human; conditions: 48 hours exposure; for IC50: Homo sapiens, read-out: Inhibition of Cancer Cell Growth as Measured by Cell Number (IC50) A2780S
Protocol: as §1

SW620 = experiment: as above; type: cell-based, Human; conditions: for IC50: Homo sapiens, SW-620, 48 hours exposure, read-out: Inhibition of Cancer Cell Growth as Measured by Cell Number (IC50) SW620
Protocol: as §1

MCF7 = experiment: as above; type: cell-based, Human; conditions: 48 hours exposure; for IC50: Homo sapiens, read-out: Inhibition of Cancer Cell Growth as Measured by Cell Number (IC50) MCF7
Protocol: as §1

SKBR3 = experiment: as above; type: cell-based, Human; conditions: for IC50: Homo sapiens, SK-BR-3, 48 hours exposure, read-out: Inhibition of Cancer Cell Growth as Measured by Cell Number (IC50) SKBR3
Protocol: as §1

LOX = experiment: as above; type: cell-based, Human; conditions: 48 hours exposure; for IC50: Homo sapiens, read-out: Inhibition of Cancer Cell Growth as Measured by Cell Number (IC50) LOX
Protocol: as §1

[1] = biological target: T1, His-tagged cytoplasmic domain of EGFR (Homo sapiens, UniProt P00533); experiment: Inhibition of Epidermal Growth Factor Receptor Kinase (EGF-R) using recombinant enzyme, RR-SRC peptide phosphorylation; type: biochemical
T1 construct: containing the EGFR cDNA encoding amino acids 645 - 1186 preceded by Met-Ala-(His)6; Met-Ala-(His)6 (N); made in house; host or cells: Sf9 insect cells, recombinant baculovirus vHcEGFR52
T1 sequence (P00533 669-1210): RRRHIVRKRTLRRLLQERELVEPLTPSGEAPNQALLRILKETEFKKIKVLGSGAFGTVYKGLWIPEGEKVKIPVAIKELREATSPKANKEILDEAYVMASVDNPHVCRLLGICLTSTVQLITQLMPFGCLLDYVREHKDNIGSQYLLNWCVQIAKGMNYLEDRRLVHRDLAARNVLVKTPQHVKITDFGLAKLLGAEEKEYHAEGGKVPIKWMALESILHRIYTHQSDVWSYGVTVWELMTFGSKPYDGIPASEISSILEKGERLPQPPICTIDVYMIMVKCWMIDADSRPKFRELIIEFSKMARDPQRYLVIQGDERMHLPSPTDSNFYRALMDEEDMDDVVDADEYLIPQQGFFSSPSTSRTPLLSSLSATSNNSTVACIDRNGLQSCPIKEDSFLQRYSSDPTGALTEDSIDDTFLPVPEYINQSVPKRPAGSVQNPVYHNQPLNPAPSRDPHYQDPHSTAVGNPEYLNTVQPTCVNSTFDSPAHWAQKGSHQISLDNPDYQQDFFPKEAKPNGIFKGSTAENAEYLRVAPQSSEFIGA
Protocol: The enzyme used in this assay is the His-tagged cytoplasmic domain of EGFR. […] Sf9 cells in 100 mm plates were infected at an moi of 10 pfu/cell and cells were harvested 48 h post infection. A cytoplasmic extract was prepared using 1% Triton X-100 and applied to Ni-NTA column. After washing the column with 20 mM imidazole, HcEGFR was eluted with 250 mM imidazole (in 50 mM Na2HPO4, pH 8.0, 300 mM NaCl). Fractions collected were dialyzed against 10 mM HEPES, pH 7.0, 50 mM NaCl, 10% glycerol, 1ug/mL antipain and leupeptin and 0. 1 mM Pefabloc SC. The protein was frozen in dry ice/methanol and stored -70°C.
For the enzyme reaction, 10 uL of each inhibitor (at various concentrations) were added to each well of a 96-well plate. To this was added 3 uL of enzyme (1: 10 dilution in 10mM HEPES, pH 7.4 for final conc. of 1:120). This was allowed to sit for 10 min on ice and was followed by the addition of 5 ul peptide (80 uM final conc.), 10ul of 4X Buffer (Table A), 0.25 uL ^33P-ATP and 12 uL H2O. The reaction was allowed to run for 90 min at room temperature and was followed by spotting the entire volume on to precut P81 filter papers. The filter discs were washed 2X with 0.5% phosphoric acid and radioactivity was measured using a liquid scintillation counter.

MB435 = experiment: Inhibition of Cancer Cell Growth (Sulforhodamine B); type: cell-based, Human; conditions: 48 hours exposure; for IC50: Homo sapiens, read-out: Inhibition of Cancer Cell Growth as Measured by Cell Number (IC50) MB435
Protocol: as §1

[2] = recombinant enzyme, average of the number of tests, read-out: IC50

Compound	IC50 (A2780DDP) [µg/mL]	IC50 (A431) [µg/mL]	IC50 (A2780S) [µg/mL]	IC50 (SW620) [µg/mL]	IC50 (MCF7) [µg/mL]	IC50 (SKBR3) [µg/mL]	IC50 (LOX) [µg/mL]	IC50 [1, 2] [nM]	IC50 (MB435) [µg/mL]	IC50 [1] [nM]	Inhibition of Cancer Cell Growth as Measured by Cell Number (IC50) A2780DDP (A2780DDP) [µg/mL]	Inhibition of Cancer Cell Growth as Measured by Cell Number (IC50) A431 (A431; 48 hours exposure) [µg/mL]	Inhibition of Cancer Cell Growth as Measured by Cell Number (IC50) A2780S (A2780S) [µg/mL]	Inhibition of Cancer Cell Growth as Measured by Cell Number (IC50) MB435 (MB435) [µg/mL]	Inhibition of Cancer Cell Growth as Measured by Cell Number (IC50) SW620 (SW620; 48 hours exposure) [µg/mL]	Inhibition of Cancer Cell Growth as Measured by Cell Number (IC50) MCF7 (MCF7) [µg/mL]	Inhibition of Cancer Cell Growth as Measured by Cell Number (IC50) SKBR3 (SKBR3; 48 hours exposure) [µg/mL]	Inhibition of Cancer Cell Growth as Measured by Cell Number (IC50) LOX (LOX) [µg/mL]
O=C(/C=C/Cl)Nc1ccc2ncnc(Nc3cccc(Br)c3)c2c1 [Example 47, N-[4-[(3-Bromophenyl)amino]-6-quinazolinyl]-3(E)-chloro-2-propenamide]	0.197 (≈ 0.488 µM)	0.023 (≈ 0.057 µM)	0.01 (≈ 0.0248 µM)	0.39 (≈ 0.966 µM)	1.17 (≈ 2.9 µM)	0.496 (≈ 1.23 µM)	0.0772 (≈ 0.191 µM)	0.3										
O=c1c(Nc2ccc3ncnc(Nc4cccc(Br)c4)c3c2)c(N2CCOCC2)c1=O [Example 52, 3-[4-(3-Bromo-phenylamino)-quinazolin-6-ylamino]-4-morpholin-4-yl-cyclobut-3-ene-1,2-dione]	41.1 (≈ 85.7 µM)	8.42 (≈ 17.5 µM)	27 (≈ 56.3 µM)	> 100	53.1 (≈ 111 µM)	38 (≈ 79.1 µM)	7.6 (≈ 15.8 µM)		26.8 (≈ 55.8 µM)									
CN1CCC=C(C(=O)Nc2ccc3ncnc(Nc4cccc(Br)c4)c3c2)C1 [Example 53]	4.73 (≈ 10.8 µM)	0.44 (≈ 1 µM)	2.89 (≈ 6.59 µM)		5.09 (≈ 11.6 µM)		5.62 (≈ 12.8 µM)		4.31 (≈ 9.83 µM)	60								
O=C(C=CCBr)Nc1ccc2ncnc(Nc3cccc(Br)c3)c2c1 [Example 65, 4-Bromo-but-2-enoic acid [4-(3-bromo-phenylamino)-quinazolin-6-yl]-amide]	6.5 (≈ 14.1 µM)	3.2 (≈ 6.92 µM)	5.2 (≈ 11.3 µM)	8.1 (≈ 17.5 µM)	42 (≈ 90.9 µM)	0.3 (≈ 0.649 µM)	5.3 (≈ 11.5 µM)		13 (≈ 28.1 µM)									
CN(C)CC=CC(=O)Nc1ccc2ncnc(Nc3cccc(Br)c3)c2c1 [Example 66, 4-Dimethylamino-but-2-enoic acid [4-(3-bromo-phenylamino)-quinazolin-6-yl]-amide]	5.1 (≈ 12 µM)	0.007 (≈ 0.0164 µM)	3.9 (≈ 9.15 µM)	5.1 (≈ 12 µM)	7.6 (≈ 17.8 µM)	< 0.01	4.9 (≈ 11.5 µM)		5.4 (≈ 12.7 µM)									
CSSC(C)C(=O)Nc1ccc2ncnc(Nc3cccc(Br)c3)c2c1 (centres unmarked) [Example 73, N-[4-(3-Bromo-phenylamino)-quinazolin-6-yl]-2-methyldisulfanyl-propionamide]	3 (≈ 6.68 µM)	1.07 (≈ 2.38 µM)	1.77 (≈ 3.94 µM)	3.65 (≈ 8.12 µM)	5.04 (≈ 11.2 µM)		3.1 (≈ 6.9 µM)											
O=C(Nc1ccc2ncnc(Nc3cccc(Br)c3)c2c1)C1CO1 (centres unmarked) [Example 81, Oxirane-2-carboxylic acid [4-(3-bromo-phenylamino)-quinazolin-6-yl]-amide]	0.311 (≈ 0.807 µM)	0.34 (≈ 0.883 µM)	0.257 (≈ 0.667 µM)	0.584 (≈ 1.52 µM)	1.03 (≈ 2.67 µM)	0.306 (≈ 0.794 µM)	0.386 (≈ 1 µM)	0.7										
C=CS(=O)(=O)Nc1ccc2ncnc(Nc3cccc(Br)c3)c2c1 [Example 82, Ethenesulfonic acid[4-(3-bromo-phenylamino)-quinazolin-6-yl]-amide]	0.112 (≈ 0.276 µM)	0.025 (≈ 0.0617 µM)	0.0626 (≈ 0.154 µM)	0.53 (≈ 1.31 µM)	0.81 (≈ 2 µM)	0.269 (≈ 0.664 µM)	0.382 (≈ 0.943 µM)											
N-[4-(3-Bromo-phenylamino)-quinazolin-6-yl]-2-morpholin-4-ylmethyl-acrylamide [Example 63]											4.0	0.6	0.8	4.5	5.5	17	<0.01	3.9
